Reference: patent US10214519B2, “Phosphatidylinositol 3-kinase inhibitors” (Gilead Sciences, Inc., priority 2016, dated 2019)

Target: PI3Kβ (Homo sapiens (Human), UniProt P42338)
Assay: PI3K isoform TR-FRET enzymatic assay (PI3Kβ)
Type: biochemical
Conditions: 2× Km ATP, 30 minutes at 25° C.
Outline: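 Heterodimeric recombinant PI3Kβ was incubated with compound 30 minutes at 25° C. Product was detected by TR-FRET competition with 10 nM labeled PIP3 for 35 nM Eu-GRP-1 PH domain after EDTA stop. Data were normalized to 1 μM wortmannin and DMSO, and IC50 was taken from a four-parameter fit.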

Sequence of PI3Kβ (P42338 whole entry, canonical isoform): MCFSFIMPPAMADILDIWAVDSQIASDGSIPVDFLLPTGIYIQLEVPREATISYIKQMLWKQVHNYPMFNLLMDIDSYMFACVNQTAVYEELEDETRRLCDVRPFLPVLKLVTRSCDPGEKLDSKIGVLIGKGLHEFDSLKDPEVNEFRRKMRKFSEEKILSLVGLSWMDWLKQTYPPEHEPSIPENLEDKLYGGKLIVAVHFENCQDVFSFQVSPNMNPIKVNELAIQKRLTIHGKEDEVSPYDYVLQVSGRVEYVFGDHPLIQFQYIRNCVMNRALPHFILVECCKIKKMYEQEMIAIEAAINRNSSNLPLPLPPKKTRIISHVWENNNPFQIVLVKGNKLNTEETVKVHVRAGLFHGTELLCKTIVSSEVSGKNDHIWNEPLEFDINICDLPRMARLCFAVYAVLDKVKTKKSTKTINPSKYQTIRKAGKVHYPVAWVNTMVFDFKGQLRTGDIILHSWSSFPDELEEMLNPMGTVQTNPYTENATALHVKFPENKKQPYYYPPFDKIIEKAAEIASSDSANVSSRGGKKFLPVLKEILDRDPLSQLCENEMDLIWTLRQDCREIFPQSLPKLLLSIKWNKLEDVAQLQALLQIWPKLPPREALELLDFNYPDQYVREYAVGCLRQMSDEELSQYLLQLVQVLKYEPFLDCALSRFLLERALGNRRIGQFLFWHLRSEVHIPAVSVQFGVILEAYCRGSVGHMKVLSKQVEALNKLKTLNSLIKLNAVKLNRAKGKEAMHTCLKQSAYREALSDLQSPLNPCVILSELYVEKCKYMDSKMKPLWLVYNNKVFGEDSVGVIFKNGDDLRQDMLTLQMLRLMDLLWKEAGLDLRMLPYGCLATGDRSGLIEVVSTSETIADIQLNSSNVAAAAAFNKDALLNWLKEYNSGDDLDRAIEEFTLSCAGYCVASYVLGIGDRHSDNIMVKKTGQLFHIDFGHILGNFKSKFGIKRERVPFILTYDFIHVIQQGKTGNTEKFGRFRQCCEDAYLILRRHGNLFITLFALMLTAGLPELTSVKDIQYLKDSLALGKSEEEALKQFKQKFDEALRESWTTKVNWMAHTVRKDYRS
Sequence of PI3Kβ (P27986 whole entry partner, canonical isoform): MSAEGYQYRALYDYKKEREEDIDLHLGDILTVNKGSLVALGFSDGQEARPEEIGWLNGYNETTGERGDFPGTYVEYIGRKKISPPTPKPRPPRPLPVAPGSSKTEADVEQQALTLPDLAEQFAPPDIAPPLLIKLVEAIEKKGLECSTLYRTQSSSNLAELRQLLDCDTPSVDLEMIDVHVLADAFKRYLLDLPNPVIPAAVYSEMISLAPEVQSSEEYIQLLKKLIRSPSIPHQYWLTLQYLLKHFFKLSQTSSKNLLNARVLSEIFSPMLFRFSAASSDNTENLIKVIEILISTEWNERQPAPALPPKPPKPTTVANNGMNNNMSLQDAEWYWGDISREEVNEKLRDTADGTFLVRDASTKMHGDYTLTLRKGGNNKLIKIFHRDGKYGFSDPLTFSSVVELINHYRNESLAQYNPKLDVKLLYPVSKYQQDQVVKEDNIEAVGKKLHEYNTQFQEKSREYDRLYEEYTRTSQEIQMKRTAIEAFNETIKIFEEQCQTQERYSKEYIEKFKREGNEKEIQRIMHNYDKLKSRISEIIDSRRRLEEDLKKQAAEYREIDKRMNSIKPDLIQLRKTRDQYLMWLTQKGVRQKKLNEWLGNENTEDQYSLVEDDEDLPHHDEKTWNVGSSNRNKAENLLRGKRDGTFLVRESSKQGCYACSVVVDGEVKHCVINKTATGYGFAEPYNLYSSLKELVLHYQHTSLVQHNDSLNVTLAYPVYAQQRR

Compound	IC50 [nM]
CCc1nc2c(-c3cnc(Cl)[nH]3)cc(N3CCOCC3)cc2n1-c1ccnc2c(F)ccc(F)c12 (atropisomer, axis not shown) [Compound 346, 4-[7-(2-chloro-1H-imidazol-5-yl)-3-(5,8-difluoroquinolin-4-yl)-2-ethylbenzimidazol-5-yl]morpholine]	10000
Cc1cc(-n2c(C)nc3c(-c4nnc[nH]4)cc(N4CCOCC4)cc32)c2cccc(C(F)(F)F)c2n1 [Example 60, 4-[2-methyl-3-[2-methyl-8-(trifluoromethyl)quinolin-4-yl]-7-(4H-1,2,4-triazol-3-yl)benzimidazol-5-yl]morpholine]	30
Cc1nc2c(-c3nnc[nH]3)cc(N3CCOCC3)c(F)c2n1-c1ccnc2c(Cl)cccc12 [Example 91, 4-[3-(8-chloroquinolin-4-yl)-4-fluoro-2-methyl-7-(4H-1,2,4-triazol-3-yl)benzimidazol-5-yl]morpholine]	19
CCc1nc2c(-c3nnc(Cl)[nH]3)cc(N3CCOCC3)cc2n1-c1ccnc2c(F)ccc(F)c12 [Example 179, 4-[7-(5-chloro-4H-1,2,4-triazol-3-yl)-3-(5,8-difluoroquinolin-4-yl)-2-ethylbenzimidazol-5-yl]morpholine]	44
Cc1cccc2nccc(-n3c(C)nc4c(-c5nnc[nH]5)cc(N5CCOCC5)cc43)c12 (atropisomer, axis not shown) [Compound 363, 4-[2-methyl-3-(5-methylquinolin-4-yl)-7-(4H-1,2,4-triazol-3-yl)benzimidazol-5-yl]morpholine]	8000
Cc1nc2c(-c3nnc[nH]3)cc(N3CCOCC3)cc2n1-c1cc(-c2ccccc2)nc2ccccc12 [Example 59, 4-[2-methyl-3-(2-phenylquinolin-4-yl)-7-(4H-1,2,4-triazol-3-yl)benzimidazol-5-yl]morpholine]	130
c1ccc2c(-n3c(C4COC4)nc4c(-c5nnc[nH]5)cc(N5CCOCC5)cc43)ccnc2c1 [Example 24, 4-(2-(oxetan-3-yl)-1-(quinolin-4-yl)-4-(4H-1,2,4-triazol-3-yl)-1H-benzo[d]imidazol-6-yl)morpholine]	1500
Cc1nc2c(-c3ncc[nH]3)cc(N3CCOCC3)cc2n1-c1ccnc2c(Cl)cccc12 [Example 175, 4-[3-(8-chloroquinolin-4-yl)-7-(1H-imidazol-2-yl)-2-methylbenzimidazol-5-yl]morpholine]	10
Cc1nnc(-c2cc(N3CCOCC3)cc3c2ncn3-c2ccnc3c(Cl)cccc23)[nH]1 [Example 134, 4-[3-(8-chloroquinolin-4-yl)-7-(5-methyl-4H-1,2,4-triazol-3-yl)benzimidazol-5-yl]morpholine]	16
Cc1ccc(F)c2c(-n3c(C)nc4c(-c5nnc[nH]5)cc(N5CCOCC5)cc43)ccnc12 [Example 124, 4-[3-(5-fluoro-8-methylquinolin-4-yl)-2-methyl-7-(4H-1,2,4-triazol-3-yl)benzimidazol-5-yl]morpholine]	9
CCCc1nc2c(-c3nnc(C)[nH]3)cc(N3CCOCC3)cc2n1-c1ccnc2c(Cl)cccc12 [Example 46, 4-(1-(8-chloroquinolin-4-yl)-4-(5-methyl-4H-1,2,4-triazol-3-yl)-2-propyl-1H-benzo[d]imidazol-6-yl)morpholine]	19
Fc1ccc(F)c2c(-n3c(C4CC4)nc4c(-c5cnc(Cl)[nH]5)cc(N5CCOCC5)cc43)ccnc12 (atropisomer, axis not shown) [Compound 343, 4-[7-(2-chloro-1H-imidazol-5-yl)-2-cyclopropyl-3-(5,8-difluoroquinolin-4-yl)benzimidazol-5-yl]morpholine]	5
CCCc1nc2c(-c3ccn[nH]3)cc(N3CCOCC3)cc2n1-c1ccnc2c(F)ccc(F)c12 [Example 389]	16
Fc1ccc(Cl)c2nccc(-n3c(C4CC4)nc4c(-c5cnc(Cl)[nH]5)cc(N5CCOCC5)cc43)c12 [Example 307, 4-[3-(8-chloro-5-fluoroquinolin-4-yl)-7-(2-chloro-1H-imidazol-5-yl)-2-cyclopropylbenzimidazol-5-yl]morpholine]	8
Fc1ccc(F)c2c(-n3cnc4c(-c5ncco5)cc(N5CCOCC5)cc43)ccnc12 [Example 236, 4-[3-(5,8-difluoroquinolin-4-yl)-7-(1,3-oxazol-2-yl)benzimidazol-5-yl]morpholine]	5
Clc1cccc2c(-n3c(-c4cnsc4)nc4c(-c5nnc[nH]5)cc(N5CCOCC5)cc43)ccnc12 [Example 118, 4-[3-(8-chloroquinolin-4-yl)-2-(1,2-thiazol-4-yl)-7-(4H-1,2,4-triazol-3-yl)benzimidazol-5-yl]morpholine]	52
Fc1ccc(F)c2c(-n3cnc4c(-c5nnc[nH]5)cc(N5CCOCC5)cc43)ccnc12 [Example 28, 4-(1-(5,8-difluoroquinolin-4-yl)-4-(4H-1,2,4-triazol-3-yl)-1H-benzo[d]imidazol-6-yl)morpholine]	3

Compound	IC50 [nM]
Cc1nnc(-c2cc(N3CCOCC3)cc3c2nc(C)n3-c2ccnc3c(Cl)cc(F)cc23)[nH]1 [Example 18, 4-(1-(8-chloro-6-fluoroquinolin-4-yl)-2-methyl-4-(5-methyl-4H-1,2,4-triazol-3-yl)-1H-benzo[d]imidazol-6-yl)morpholine]	63
CCc1nc2ccccc2c(-n2cnc3c(-c4nnc[nH]4)cc(N4CCOCC4)cc32)c1C [Example 72, 4-[3-(2-ethyl-3-methylquinolin-4-yl)-7-(4H-1,2,4-triazol-3-yl)benzimidazol-5-yl]morpholine]	25
Cc1nnc(-c2cc(N3CCOCC3)cc3c2nc(C)n3-c2ccnc3c(Cl)ccc(Cl)c23)[nH]1 [Example 151, 4-(1-(5,8-dichloroquinolin-4-yl)-2-methyl-4-(5-methyl-4H-1,2,4-triazol-3-yl)-1H-benzo[d]imidazol-6-yl)morpholine]	44
CCCc1nc2c(-c3cn[nH]c3)cc(N3CCOCC3)cc2n1-c1ccnc2c(F)ccc(F)c12 [Example 388, 4-(1-(5,8-difluoroquinolin-4-yl)-2-propyl-4-(1H-pyrazol-4-yl)-1H-benzo[d]imidazol-6-yl)morpholine]	1100
CC(C)c1nc2c(-c3nnc[nH]3)cc(N3CCOCC3)cc2n1-c1ccnc2c(Cl)cccc12 [Example 36, 4-(1-(8-chloroquinolin-4-yl)-2-isopropyl-4-(4H-1,2,4-triazol-3-yl)-1H-benzo[d]imidazol-6-yl)morpholine]	11
CCc1nc2c(-c3cnc(Cl)[nH]3)cc(N3CCOCC3)cc2n1-c1ccnc2c(F)cccc12 [Example 284, 4-[7-(2-chloro-1H-imidazol-5-yl)-2-ethyl-3-(8-fluoroquinolin-4-yl)benzimidazol-5-yl]morpholine]	13
Cc1nc2c(-c3nnc[nH]3)cc(N3CCOCC3)c(F)c2n1-c1ccnc2c(Cl)ccc(F)c12 [Example 150, 4-(1-(8-chloro-5-fluoroquinolin-4-yl)-7-fluoro-2-methyl-4-(4H-1,2,4-triazol-3-yl)-1H-benzo[d]imidazol-6-yl)morpholine]	27
CCc1nc2c(-c3cnc(Cl)[nH]3)cc(N3CCOCC3)cc2n1-c1ccnc2c(F)ccc(F)c12 (atropisomer, axis not shown) [Compound 347, 4-[7-(2-chloro-1H-imidazol-5-yl)-3-(5,8-difluoroquinolin-4-yl)-2-ethylbenzimidazol-5-yl]morpholine]	7
Cc1nc2c(-c3nnc[nH]3)cc(N3CCOCC3)cc2n1-c1c(Cl)cnc2c(Cl)cccc12 [Example 97, 4-[3-(3,8-dichloroquinolin-4-yl)-2-methyl-7-(4H-1,2,4-triazol-3-yl)benzimidazol-5-yl]morpholine]	12
Cc1nc2c(-c3nnc(C(F)(F)F)[nH]3)cc(N3CCOCC3)cc2n1-c1ccnc2c(Cl)cccc12 [Example 136, 4-[3-(8-chloroquinolin-4-yl)-2-methyl-7-[5-(trifluoromethyl)-4H-1,2,4-triazol-3-yl]benzimidazol-5-yl]morpholine]	48
Cc1nc2c(-c3ccc[nH]3)cc(N3CCOCC3)cc2n1-c1ccnc2c(Cl)cccc12 [Example 261, 4-[3-(8-chloroquinolin-4-yl)-2-methyl-7-(1H-pyrrol-2-yl)benzimidazol-5-yl]morpholine]	24
Cc1nc2c(-c3nnc[nH]3)cc(N3CCOCC3)cc2n1-c1ccnc2c(C(F)(F)F)cccc12 [Example 108, 4-[2-methyl-7-(4H-1,2,4-triazol-3-yl)-3-[8-(trifluoromethyl)quinolin-4-yl]benzimidazol-5-yl]morpholine]	26
Clc1cccc2c(-n3c(C4CCOC4)nc4c(-c5nnc[nH]5)cc(N5CCOCC5)cc43)ccnc12 (stereo not shown) [Example 9, 4-(1-(8-chloroquinolin-4-yl)-2-(tetrahydrofuran-3-yl)-4-(4H-1,2,4-triazol-3-yl)-1H-benzo[d]imidazol-6-yl)morpholine]	33
Cc1nc2c(-c3nnc(Cl)[nH]3)cc(N3CCOCC3)cc2n1-c1ccnc2c(Cl)ccc(F)c12 [Example 170, 4-(4-(5-chloro-4H-1,2,4-triazol-3-yl)-1-(8-chloro-5-fluoroquinolin-4-yl)-2-methyl-1H-benzo[d]imidazol-6-yl)morpholine]	7
Cc1nnc(-c2cc(N3CCOCC3)cc3c2nc(C)n3-c2ccnc3c(F)ccc(F)c23)[nH]1 (atropisomer, axis not shown) [Compound 351, (R)-4-(1-(5,8-difluoroquinolin-4-yl)-2-methyl-4-(5-methyl-4H-1,2,4-triazol-3-yl)-1H-benzo[d]imidazol-6-yl)morpholine]	460
CCCc1nc2c(-c3nnc(C)[nH]3)cc(N3CCOCC3)cc2n1-c1ccnc2c(Cl)ccc(F)c12 [Example 11, 4-(1-(8-chloro-5-fluoroquinolin-4-yl)-4-(5-methyl-4H-1,2,4-triazol-3-yl)-2-propyl-1H-benzo[d]imidazol-6-yl)morpholine]	42
Cc1cc(-n2c(C)nc3c(-c4cnc[nH]4)cc(N4CCOCC4)cc32)c2cccc(F)c2n1 [Example 210, 4-[3-(8-fluoro-2-methylquinolin-4-yl)-7-(1H-imidazol-5-yl)-2-methylbenzimidazol-5-yl]morpholine]	27
